Where “and” joins values, the source holds several entries; their conditions need not be identical. Equal values may be shown once.
How the values were obtained:
Details in all cases: incubation time: 72 h
Hs578T [1] = assay: normalised response (% of control), CellTiter-Glo; higher = more viable cells (100 = DMSO, 0 = benzethonium chloride kill control)
How it was run: (§1)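 The table gives the normalised signal for a single concentration in each entry. Breast cancer cell lines were seeded (20 µl suspension) into 384-well plates holding compound at 5 concentrations in 10-fold steps over a compound-specific 10,000-fold range and incubated 72 h, then read for CellTox Green fluorescence (485/520 nm) and CellTiter-Glo luminescence. Normalisation on each plate used 0.1 % DMSO (100) and a positive kill control (0).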

CAL-85-1 [2] = assay: as above
How it was run: as §1

MFM-223 [3] = assay: as above
How it was run: as §1

MDA-MB-453 [4] = assay: as above
How it was run: as §1

CAL-51 [5] = assay: as above
How it was run: as §1

HDQ-P1 [6] = assay: as above
How it was run: as §1

CAL-120 [7] = assay: as above
How it was run: as §1

HCC1937 [8] = assay: as above
How it was run: as §1

DU-4475 [9] = assay: as above
How it was run: as §1

BT-474 [10] = assay: as above
How it was run: as §1

MCF-10A = assay: as above
How it was run: as §1

MDA-MB-231 [11] = assay: as above
How it was run: as §1

MDA-MB-468 [12] = assay: as above
How it was run: as §1

HCC1599 [13] = assay: as above
How it was run: as §1

BT-549 [14] = assay: as above
How it was run: as §1

HCC1143 [15] = assay: as above
How it was run: as §1

CAL-148 [16] = assay: as above
How it was run: as §1

MDA-MB-436 [17] = assay: as above
How it was run: as §1

SK-BR-3 [18] = assay: as above
How it was run: as §1

Hs578T [19] = assay: normalised viability (% of control), CellTiter-Blue; higher = more viable cells (100 = DMSO, 0 = benzethonium chloride kill control)
Method: (§2)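 DSRT, CellTiter-Blue viability, 72 h incubation. Signal is normalised to DMSO and benzethonium chloride controls. Value is the normalised response at dose 1.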

CAL-85-1 [20] = assay: as above
Method: as §2

MFM-223 [21] = assay: as above
Method: as §2

MDA-MB-453 [22] = assay: as above
Method: as §2

CAL-51 [23] = assay: as above
Method: as §2

CAL-120 [24] = assay: as above
Method: as §2

HCC1937 [25] = assay: as above
Method: as §2

DU-4475 [26] = assay: as above
Method: as §2

BT-474 [27] = assay: as above
Method: as §2

MDA-MB-231 [28] = assay: as above
Method: as §2

MDA-MB-468 [29] = assay: as above
Method: as §2

HCC1599 [30] = assay: as above
Method: as §2

BT-549 [31] = assay: as above
Method: as §2

HCC1143 [32] = assay: as above
Method: as §2

CAL-148 [33] = assay: as above
Method: as §2

MDA-MB-436 [34] = assay: as above
Method: as §2

SK-BR-3 [35] = assay: as above
Method: as §2

HDQ-P1 [36] = assay: as above
Method: as §2

Structure (SMILES) | normalised response (Hs578T [1]) | normalised response (CAL-85-1 [2]) | normalised response (MFM-223 [3]) | normalised response (MDA-MB-453 [4]) | normalised response (CAL-51 [5]) | normalised response (HDQ-P1 [6]) | normalised response (CAL-120 [7]) | normalised response (HCC1937 [8]) | normalised response (DU-4475 [9]) | normalised response (BT-474 [10]) | normalised response (MCF-10A) | normalised response (MDA-MB-231 [11]) | normalised response (MDA-MB-468 [12]) | normalised response (HCC1599 [13]) | normalised response (BT-549 [14]) | normalised response (HCC1143 [15]) | normalised response (CAL-148 [16]) | normalised response (MDA-MB-436 [17]) | normalised response (SK-BR-3 [18]) | normalised viability (Hs578T [19]) | normalised viability (CAL-85-1 [20]) | normalised viability (MFM-223 [21]) | normalised viability (MDA-MB-453 [22]) | normalised viability (CAL-51 [23]) | normalised viability (CAL-120 [24]) | normalised viability (HCC1937 [25]) | normalised viability (DU-4475 [26]) | normalised viability (BT-474 [27]) | normalised viability (MDA-MB-231 [28]) | normalised viability (MDA-MB-468 [29]) | normalised viability (HCC1599 [30]) | normalised viability (BT-549 [31]) | normalised viability (HCC1143 [32]) | normalised viability (CAL-148 [33]) | normalised viability (MDA-MB-436 [34]) | normalised viability (SK-BR-3 [35]) | normalised viability (HDQ-P1 [36])
CC(=O)O[C@@]12CO[C@@H]1C[C@H](O)[C@@]1(C)C(=O)[C@H](O)C3=C(C)[C@@H](OC(=O)[C@H](O)[C@@H](NC(=O)OC(C)(C)C)c4ccccc4)C[C@@](O)([C@@H](OC(=O)c4ccccc4)[C@H]21)C3(C)C [Docetaxel] (0.1 nM) | 93.2% | 102% | 96.9% | 99.7% | 94.5% | 96.2% | 104% | 94.5% | 96.7% | 98.8% | 98% | 102% | 106% | 101% | 104% | 96.3% | 90.8% | 105% | 99.3% | 99.7% and 96.5% | 101% and 106% | 100% and 102% | 118% and 98.6% | 104% and 92.1% | 96.5% and 94.7% | 81.5% and 83.6% | 109% and 110% | 104% and 90.1% | 110% and 94.6% | 96.8% and 100% | 119% and 123% | 92.9% and 96.3% | 107% and 111% | 107% and 110% | 91.9% and 106% | 103% and 105% | 
Cc1sc2c(c1C)C(c1ccc(Cl)cc1)=N[C@@H](CC(=O)OC(C)(C)C)c1nnc(C)n1-2 [(+)JQ1] (1 nM) | 98.1% | 97.2% | 104% | 126% | 85% | 101% | 98.5% | 95.8% | 106% | 107% | 105% | 106% | 103% | 96.6% | 103% | 103% | 113% | 127% | 111% | 114% | 87.4% | 102% | 177% | 97.5% | 90.3% | 97.4% | 110% | 114% | 114% | 104% | 113% | 104% | 126% | 108% | 139% | 107% | 90.9%
Nc1ncn([C@@H]2O[C@H](CO)[C@@H](O)[C@H]2O)c(=O)n1 [Azacitidine] (1 nM) | 98.7% | 103% | 104% | 112% | 129% | 98.7% | 95.9% | 94% | 102% | 97.1% | 101% | 101% | 100% | 96.8% | 96.5% | 95.4% | 96.1% | 102% | 105% | 105% | 94.9% | 95.5% | 102% | 102% | 84.4% | 85% | 109% | 89.5% | 89.3% | 95.5% | 89.1% | 93.7% | 89.3% | 92% | 108% | 94.6% | 99.9%
CC(C)(C)c1cnc(CSc2cnc(NC(=O)C3CCNCC3)s2)o1 [SNS-032] (1 nM) | 97.6% | 105% | 92% | 99.2% | 86.2% | 95% | 91.2% | 90.8% | 98.2% | 92.2% | 95.5% | 97.5% | 92% | 96.3% | 101% | 97.3% | 92.2% | 84.1% | 90.8% | 104% | 92.7% | 93.1% | 103% | 113% | 86.2% | 103% | 99% | 101% | 97.7% | 104% | 101% | 113% | 85.9% | 113% | 113% | 101% | 102%
Oc1ncnc2[nH]ncc12 [Allopurinol] (1 nM) | 103% | 99.3% | 105% | 113% | 95.1% | 101% | 100% | 98.2% | 102% | 101% | 108% | 101% | 109% | 101% | 106% | 108% | 100% | 99.9% | 117% | 95.6% | 112% | 96.2% | 116% | 92.5% | 111% | 78.6% | 109% | 97.2% | 93.5% | 109% | 91.2% | 92.2% | 106% | 119% | 102% | 91.7% | 108%
COc1cc(F)c(F)c(Nc2ccc(I)cc2F)c1NS(=O)(=O)C1(C[C@H](O)CO)CC1 [RDEA119] (1 nM) |  |  |  |  |  |  |  |  |  |  |  |  |  |  |  |  |  |  |  | 95.4% | 108% | 92.5% | 84.5% | 91.8% | 98.7% | 80.9% | 99.3% | 79.7% | 77.4% | 95.8% | 93% | 97.3% | 98.8% | 88.7% | 104% | 106% | 79.4%
CC1(C)CNc2cc(NC(=O)c3cccnc3NCc3ccncc3)ccc21 [Motesanib] (1 nM) | 96.9% | 96% | 101% | 103% | 107% | 93.5% | 94% | 93.1% | 99.9% | 91.2% | 91.8% | 97.1% | 103% | 91.5% | 99.7% | 99% | 89.4% | 94.8% | 92.1% | 103% | 75.9% | 77.8% | 85% | 110% | 79.6% | 93.4% | 94.1% | 96.6% | 76.7% | 87.1% | 84.8% | 103% | 86.3% | 96.5% | 71.3% | 82.2% | 84.2%
CC(=O)c1c(C)c2cnc(Nc3ccc(N4CCNCC4)cn3)nc2n(C2CCCC2)c1=O (1 nM) |  |  |  |  |  |  |  |  |  |  |  |  |  |  |  |  |  |  |  | 89.5% | 87.9% | 88.5% | 106% | 104% | 87.1% | 94.7% | 99% | 108% | 94.6% | 109% | 105% | 102% | 100% | 107% | 94.1% | 93.1% | 79.2%
C[C@]12CC[C@@H]3c4ccc(OC(=O)N(CCCl)CCCl)cc4CC[C@H]3[C@@H]1CC[C@@H]2O [Estramustine] (0.099 nM) |  |  |  |  |  |  |  |  |  |  |  |  |  |  |  |  |  |  |  | 94.3% | 108% | 106% | 98.9% | 84% | 111% | 91.8% | 89.9% | 93.4% | 93.3% | 107% | 84.8% | 92.4% | 104% | 109% | 106% | 114% | 106%
C[C@]1(O)C[C@@H](c2nc(-c3ccc4ccc(-c5ccccc5)nc4c3)c3c(N)nccn32)C1 [OSI-906] (1 nM) |  |  |  |  |  |  |  |  |  |  |  |  |  |  |  |  |  |  |  | 101% | 100% | 95.6% | 85.7% | 95.6% | 97.4% | 92.3% | 89% | 82.9% | 83.7% | 100% | 100% | 95.7% | 96.8% | 94.6% | 85% | 91.1% | 74.5%

Source: the supplement of paper PMC4862054
